4 compounds from article PMC5908784, “Extracellular loops 2 and 3 of the calcitonin receptor selectively modify agonist binding and efficacy” (Biochemical Pharmacology, 2018) can be followed below.

Where a chain is given by its changes, count along the chain named. Where a SMILES comes first, the peptide text is derived from it. Bridges are numbered along the chain shown (N, C = ends).

Holding throughout (experiment): cAMP accumulation
Assay type in all cases: cell-based
Common to all, as to conditions: mean ± S.E.M.; for Emax: cAMP maximal response, SEM; for EC50: cAMP, CV1-FlpIn cells, 30 min, IBMX
On the technique in general: Changes in cAMP serve as a functional read-out for many G protein-coupled receptors.

For one test, the target named is T1, hCTR Y299A (Homo sapiens, UniProt P30988, Y299A).
T1 construct: c-Myc (N); expressed in transfected cells
T1 sequence (P30988 25-474 Y299A): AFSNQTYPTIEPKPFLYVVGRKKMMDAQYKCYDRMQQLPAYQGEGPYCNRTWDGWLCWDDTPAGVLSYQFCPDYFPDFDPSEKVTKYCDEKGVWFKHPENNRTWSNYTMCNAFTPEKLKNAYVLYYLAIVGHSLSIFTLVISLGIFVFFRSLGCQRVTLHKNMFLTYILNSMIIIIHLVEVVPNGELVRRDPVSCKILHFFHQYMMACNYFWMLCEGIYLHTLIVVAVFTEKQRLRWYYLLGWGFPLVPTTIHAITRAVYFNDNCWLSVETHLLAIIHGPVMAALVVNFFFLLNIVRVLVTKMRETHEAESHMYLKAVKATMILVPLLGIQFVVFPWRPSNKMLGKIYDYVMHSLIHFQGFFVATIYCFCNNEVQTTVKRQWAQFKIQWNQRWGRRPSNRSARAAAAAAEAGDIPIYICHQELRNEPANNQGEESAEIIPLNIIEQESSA
Here is the method:
(§1) Cells (2.5 × 10^4 cells/well) were seeded into 96-well plates and incubated overnight. Cells were stimulated with increasing concentrations of ligands for 30 min in the presence of IBMX. The liquid was discarded, changed to absolute ethanol and volatilized to dryness at room temperature. […] Data were normalized to the response of 100 μM forskolin.
(§2) Data were corrected for radioligand occupancy using the Cheng-Prusoff equation in Prism; as such data are reported as pKi. Emax and EC50 were estimated from concentration-response curves using with a 3-parameter logistic equation in Prism (v7). These values are a composite of functional affinity, efficacy and stimulus response coupling. […] Significance was accepted at P < 0.05.

The target in the next test is T2, hCTR I371A (Homo sapiens, UniProt P30988, I371A).
T2 construct: c-Myc (N); expressed in transfected cells
T2 sequence (P30988 25-474 I371A): T1 sequence (P30988 25-474 Y299A) with A275Y, I347A
Here is the method:
as §1, §2

A further test deals with T3, hCTR P363A (Homo sapiens, UniProt P30988, P363A).
T3 construct: expressed in transfected cells
T3 sequence (P30988 25-474 P363A): T1 sequence (P30988 25-474 Y299A) with A275Y, P339A
The method, then: as §1, §2

For a further test, the target named is T4, hCTR D373A (Homo sapiens, UniProt P30988, D373A).
T4 construct: c-Myc (N); expressed in transfected cells
T4 sequence (P30988 25-474 D373A): T1 sequence (P30988 25-474 Y299A) with A275Y, D349A
Here is the method:
as §1, §2

Another test deals with T5, hCTR V293A (Homo sapiens, UniProt P30988, V293A).
T5 construct: c-Myc (N); expressed in transfected cells
T5 sequence (P30988 25-474 V293A): T1 sequence (P30988 25-474 Y299A) with V269A, A275Y
Here is the method:
as §1, §2

One may read the Emax as the size of the effect at its maximum, as opposed to the concentration needed. With `CC[C@H](C)[C@H](NC(=O)[C@H](C)NC(=O)[C@@H](NC(=O)[C@H](CCC(N)=O)NC(=O)[C@@H]1CCCN1C(=O)[C@H](Cc1ccccc1)NC(=O)[C@@H](NC(=O)[C@H](Cc1c[nH]cn1)NC(=O)[C@H](Cc1ccccc1)NC(=O)[C@H](CCCCN)NC(=O)[C@H](CC(N)=O)NC(=O)[C@H](Cc1ccccc1)NC(=O)[C@H](CC(=O)O)NC(=O)[C@H](CCC(N)=O)NC(=O)[C@@H](NC(=O)[C@H](Cc1ccc(O)cc1)NC(=O)[C@@H](NC(=O)CNC(=O)[C@H](CC(C)C)NC(=O)[C@H](CCSC)NC(=O)[C@@H]1CSSC[C@H](N)C(=O)NCC(=O)N[C@@H](CC(N)=O)C(=O)N[C@@H](CC(C)C)C(=O)N[C@@H](CO)C(=O)N[C@@H]([C@@H](C)O)C(=O)N1)[C@@H](C)O)[C@@H](C)O)[C@@H](C)O)[C@@H](C)O)C(=O)NCC(=O)N[C@H](C(=O)NCC(=O)N[C@@H](C)C(=O)N1CCC[C@H]1C(N)=O)C(C)C` [hCT], the Emax was 133 ± 9% at hCTR Y299A; 24 ± 2.7% on hCTR I371A; 111 ± 5% on hCTR P363A; 142 ± 8% at hCTR D373A; 123 ± 8% at hCTR V293A.
The EC50 is the concentration that produces a half-maximal response. Low values mean higher potency in that assay, high ones lower potency in that assay. On to `CC(C)C[C@H](NC(=O)CNC(=O)[C@H](C)NC(=O)[C@H](CC(C)C)NC(=O)[C@H](CCCNC(=N)N)NC(=O)[C@H](Cc1cnc[nH]1)NC(=O)[C@@H](NC(=O)[C@@H](NC(=O)[C@@H]1CSSC[C@H](NC(=O)[C@H](C)N)C(=O)N[C@@H](CC(=O)O)C(=O)N[C@@H]([C@@H](C)O)C(=O)N[C@@H](C)C(=O)N[C@@H]([C@@H](C)O)C(=O)N1)C(C)C)[C@@H](C)O)C(=O)N[C@@H](CC(C)C)C(=O)N[C@@H](CO)C(=O)N[C@@H](CCCNC(=N)N)C(=O)N[C@@H](CO)C(=O)NCC(=O)NCC(=O)N[C@H](C(=O)N[C@H](C(=O)N[C@@H](CCCCN)C(=O)N[C@@H](CC(N)=O)C(=O)N[C@@H](CC(N)=O)C(=O)N[C@@H](Cc1ccccc1)C(=O)N[C@H](C(=O)N1CCC[C@H]1C(=O)N[C@H](C(=O)N[C@@H](CC(N)=O)C(=O)N[C@H](C(=O)NCC(=O)N[C@@H](CO)C(=O)N[C@@H](CCCCN)C(=O)N[C@@H](C)C(=O)N[C@@H](Cc1ccccc1)C(N)=O)C(C)C)[C@@H](C)O)C(C)C)C(C)C)C(C)C` [hαCGRP], for which the Emax stood at 62 ± 16% on hCTR Y299A; 58 ± 15% at hCTR I371A; 38 ± 7% at hCTR P363A; 34 ± 5% at hCTR D373A; 153 ± 17% on hCTR V293A. In addition, the EC50 is 33.1 nM at hCTR Y299A; 132 nM on hCTR I371A; 38.9 nM on hCTR P363A; 11.2 nM on hCTR D373A; 8.71 nM at hCTR V293A.
On to `CSCC[C@H](NC(=O)CNC(=O)[C@H](CO)NC(=O)[C@H](Cc1ccccc1)NC(=O)[C@H](CCCNC(=N)N)NC(=O)[C@H](Cc1c[nH]cn1)NC(=O)[C@H](Cc1ccccc1)NC(=O)[C@H](CC(N)=O)NC(=O)[C@H](CC(N)=O)NC(=O)[C@H](CC(C)C)NC(=O)[C@H](CC(N)=O)NC(=O)[C@H](CCCNC(=N)N)NC(=O)[C@H](Cc1c[nH]c2ccccc12)NC(=O)[C@H](Cc1ccc(O)cc1)NC(=O)[C@H](C)NC(=O)[C@H](CO)NC(=O)[C@H](CC(C)C)NC(=O)[C@@H](NC(=O)[C@@H]1CSSC[C@H](N)C(=O)N[C@@H](CO)C(=O)N[C@@H](CC(N)=O)C(=O)N[C@@H](CC(C)C)C(=O)N[C@@H](CO)C(=O)N[C@@H]([C@@H](C)O)C(=O)N1)C(C)C)C(=O)NCC(=O)N[C@@H](Cc1ccccc1)C(=O)NCC(=O)N1CCC[C@H]1C(=O)N[C@@H](CCC(=O)O)C(=O)N[C@H](C(=O)N1CCC[C@H]1C(N)=O)[C@@H](C)O` [pCT] (H-CSNLSTCVLSAYWRNLNNFHRFSGMGFGPETP-NH2; disulfide 1-7), for which the Emax was found to be 117 ± 9% at hCTR Y299A; 35 ± 5% on hCTR I371A; 148 ± 15% at hCTR P363A; 158 ± 9% at hCTR D373A; 107 ± 5% at hCTR V293A. Further, the 50% effective concentration (EC50) on hCTR Y299A was 0.135 nM; at hCTR I371A it was 0.0794 nM; on hCTR P363A it was 0.389 nM; on hCTR D373A it was 0.389 nM; on hCTR V293A, 0.0501 nM.
Turning to `CC(C)C[C@H](NC(=O)[C@H](CC(N)=O)NC(=O)[C@H](CC(N)=O)NC(=O)[C@H](CO)NC(=O)[C@H](CO)NC(=O)[C@H](CCCNC(=N)N)NC(=O)[C@@H](NC(=O)[C@H](CC(C)C)NC(=O)[C@H](Cc1ccccc1)NC(=O)[C@H](CC(N)=O)NC(=O)[C@H](C)NC(=O)[C@H](CC(C)C)NC(=O)[C@H](CCCNC(=N)N)NC(=O)[C@H](CCC(N)=O)NC(=O)[C@@H](NC(=O)[C@H](C)NC(=O)[C@@H]1CSSC[C@H](NC(=O)[C@@H](N)CCCCN)C(=O)N[C@@H](CC(N)=O)C(=O)N[C@@H]([C@@H](C)O)C(=O)N[C@@H](C)C(=O)N[C@@H]([C@@H](C)O)C(=O)N1)[C@@H](C)O)C(C)C)C(=O)NCC(=O)N1CCC[C@H]1C(=O)N[C@H](C(=O)N[C@@H](CC(C)C)C(=O)N1CCC[C@H]1C(=O)N1CCC[C@H]1C(=O)N[C@H](C(=O)N[C@@H](CC(N)=O)C(=O)N[C@H](C(=O)NCC(=O)N[C@@H](CO)C(=O)N[C@@H](CC(N)=O)C(=O)N[C@H](C(=O)N[C@@H](Cc1ccc(O)cc1)C(N)=O)[C@@H](C)O)C(C)C)[C@@H](C)O)C(C)C` [rAmy], the Emax at hCTR Y299A came out at 102 ± 1%; on hCTR I371A, 47 ± 7%; on hCTR P363A, 94 ± 20%; on hCTR D373A, 64 ± 16%; on hCTR V293A, 91 ± 10%.
